Reference: patent US20220152044A1, “TREATMENT OF INFLAMMATORY DISEASES OF THE CENTRAL NERVOUS SYSTEM” (PALMAYA PTY LTD, priority 2019, published 2022)

How the values were obtained:
cannabis withdrawal = assay: Withdrawal from cannabis with high THC concentrations; assay type: in vivo, human; details: flumazenil 160 μg/hour
Description: Cannabis use has changed in recent years with a significant cohort describing high tetrahydrocannabinol (THC) concentrations in potent strains which are cultivated for their high THC content. In the patient group using these high concentrations of THC, we have noted that a group of patients give a clear cut history of extreme nausea, vomiting, anxiety changing to serious paranoid thoughts and delusions followed by psychosis over the first 3-5 days of ceasing drug use.
In a severe patient population, ondansetron may be given every 6-8 hours to assist in reducing the nausea and associated anxiety symptoms.
Our results indicated a clear reduction in anxiety, and paranoid symptoms, allowing patients who otherwise would be unable to cope with the symptoms, to cease cannabis use.

craving for nicotine = assay: Nicotine craving and use in patients; assay type: in vivo, human; details: flumazenil by infusion or nasally/sublingually 50 to 200 micrograms per dose
opioid use = assay: Abstinence from opioids in 108 patients treated with flumazenil; assay type: in vivo, human; details: 91.2% before flumazenil
Description: In the 108 patients treated with flumazenil abstinence from opioids increased from 91.2% before flumazenil to 100% following the flumazenil treatment.

alcohol patients = assay: Survey of 84 alcohol patients after flumazenil infusions or implants; assay type: in vivo, human
Description: In a survey of 84 alcohol patients the percent of patients drinking daily fell from 14.5% to 5.5% following flumazenil infusions or implants.

cannabis use = assay: Survey of 109 patients, cannabis use after flumazenil infusion; assay type: in vivo, human
Description: In a survey of 109 patients daily use was close to halved from 10% to 5.5%.

amphetamine use = assay: Amphetamine / methamphetamine craving and withdrawal; assay type: in vivo, human; details: methamphetamine patients, flumazenil infusions at 160 μg/hour
Procedure: In those patients that return 2-3 weeks with extreme anxiety and a desire to return to amphetamine use, the commencement of flumazenil infusions followed by a flumazenil implant that sustains a plasma concentration of flumazenil at 0.5-2 ng/ml or more decreases the cravings, including a decrease in the desire for amphetamines and allows reduction f irritability and aggression.

migraine = assay: Treatment of migraine in a person with flumazenil infusion and subcutaneous implants; assay type: in vivo, human
Procedure: The patient recently presented to our clinic, and was treated with flumazenil given subcutaneously at a rate of 160 micrograms per hour, delivered by a spring driven pump for a continuous period of time. The time that the migraines regularly occurred was the week prior to menstruation.
(§1) The patient was then treated with a subcutaneous implant delivering an estimated 60-80 micrograms per hour of flumazenil (based on water bath release rate testing). The implant was expected to last 8-10 weeks. This prevented the migraines for about 9-10weeks. In the week before the implant was inserted, the patient's blood flumazenil level was noted to be 0.5 ng/ml. The usual expected level for 160 microgram an hour infusions was in the order of 2-3 ng per ml and 1-1.5 ng for 80 microgram per hour infusions.
This finding that the migraines were stopped for a nine week period of time was amazing to the patient as they had suffered migraines for typically three weeks out of four for all of the years […]. At the end of week 8 on the first implant their blood flumazenil level was recorded as 0.5 ng per ml, which is considered a low level. Within a week another migraine started and the patient presented to the clinic for treatment.
A further subcutaneous implant was inserted and within four hours all symptoms from the migraine had settled. This was most unusual and unexpected as the symptoms following migraines usually persisted many days for this patient.
This next implant was also delivering an estimated 60-80 micrograms of flumazenil per hour. Evidence of ovulation was confirmed by routine elevation of progesterone during the luteal phase of one of the two cycles during the time of this second implant. Again no migraines occurred during an 8-9 week time of the second implant. Blood levels of flumazenil at 1.2 and 1.3 ng/ml were recorded during the time of the second implant. After 9-10 weeks the patient, presented to a teaching hospital on the weekend with another migraine. They were treated with all the modern treatments for migraines without resolution of the migraine.
A few days later a third implant was inserted. It again was surprising that all symptoms relating to the migraine settled within four hours.

psychosis = assay: Drug or anxiety induced episodes of psychosis at detoxification; assay type: in vivo, human; details: patients with history of psychosis after ceasing cannabis, amphetamines and alcohol; sustained delivery
[1] = Water bath release rate testing of flumazenil implant; assay type: physicochemical; details: based on water bath release rate testing
Procedure: as §1

any dependency = assay: Detoxification from any dependency, 108 patients followed; assay type: in vivo, human
migraine patients = assay: Two migraine patients, follow-up during and after flumazenil delivery; assay type: in vivo, human
Procedure: Two migraine patients initially described migraine symptoms, are both symptom free for more than a year. No repeat treatments occurred in the second of the migraine patients, and as such, believe that the treatment might be curative in some patients.
In these two patients treated for migraines, the first patient the history of migraines affecting their required an infusion initially, and then flumazenil implants maintaining at least 1 ng per ml of flumazenil to achieve relief of symptoms. In a second patient we noted that the symptom relief has lasted for more than 12 months when treatment with a flumazenil implant lasting an estimated six months occurred.

[2] = Swelling at the site of subcutaneous injection of flumazenil solution; assay type: in vivo, human; details: 16 mg per 30 ml solution, 4 mg in 7.5 ml a day versus standard ampoules 4 mg in 40 ml
Procedure: In our experience, this is the first flumazenil solution prepared for subcutaneous delivery making it possible to deliver 4 mg of flumazenil in a volume of just 7.5 ml per day. Clinically, this is preferred to the standard flumazenil preparations, which involve injecting 4 mg in 40 ml per day. For example, the lower volume results in less swelling at the site of injection.
During our development of flumazenil ampoules we have found the preferred pH is about 4±1. In addition, the volume and dilution of flumazenil is preferably 16 mg per 30 ml. In our experience this was the first flumazenil made for subcutaneous delivery, and therefore, a dose of flumazenil at 4 mg can be administered in a volume of only 7.5 ml a day. Clinically, this is more convenient than the standard flumazenil ampoules which involve injecting 4 mg in a volume of 40 ml. […] In addition, the packaging of a dose of flumazenil of 16 mg in 30 ml enables clinical staff to use one ampoule for 4 days at 4 mg a day and one ampoule for 8 days at doses of 2 mg per day.

CCOC(=O)c1ncn2c1CN(C)C(=O)c1cc(F)ccc1-2 [flumazenil]
nausea, vomiting, anxiety, paranoid thoughts, delusions, psychosis on ceasing high-THC cannabis (cannabis withdrawal): controls or reduces the presence of these symptoms | craving for and use of nicotine (craving for nicotine): reduced craving and use | abstinence from opioids following treatment (opioid use): 100% | percentage abstinent to alcohol following treatment (alcohol patients; 53.1% before): 77.1% | percent of patients drinking daily following treatment (alcohol patients; flumazenil infusions or implants, 14.5% before): 5.5% | daily cannabis use following treatment (cannabis use; 109 patients, 10% before): 5.5% | abstinence from cannabis following treatment (cannabis use; 109 patients, 75% before): 83.5% | patient-reported cannabis cessation symptoms (nausea day one, anxiety, sleep, paranoid and psychotic thinking, suicidal thoughts) (cannabis use; patients who presented to cease cannabis): anxiety was decreased and sleep was better | severe withdrawal symptoms including psychosis or extreme anxiety (amphetamine use): prevent these symptoms | time until all symptoms from the migraine had settled (migraine; after insertion of the further (second) subcutaneous implant): four | time until all symptoms relating to the migraine settled (migraine; after insertion of the third implant): four | time without migraines (migraine; second implant, estimated 60-80 micrograms flumazenil per hour): 8-9 week | occurrence of migraine at the expected time (week prior to menstruation) (migraine; subcutaneous infusion 160 micrograms per hour by spring driven pump): did not occur | onset of psychosis with detoxification (psychosis): prevents the onset of psychosis | estimated delivery rate of flumazenil from subcutaneous implant [1]: 60-80 micrograms per hour | daily use of alcohol, smoking, cannabis, amphetamines, opioids and other drug use (any dependency): reduction in daily use | flumazenil level maintained by implants to achieve relief of symptoms (migraine patients; first migraine patient, infusion initially then implants): at least 1 ng per ml | duration of symptom relief (migraine patients; second patient, flumazenil implant lasting an estimated six months, no repeat treatment): more than 12 months | symptom free period (migraine patients; two migraine patients): more than a year | swelling of the tissues at the site of injection [2]: less swelling
